Several values for one entry are separate records, joined by “and”; a condition that tells them apart may be missing. Equal values may be shown once. Read-outs that look alike come from different tables or passages of the source.
What was measured:
[1] = target: human μ opioid receptor (OPRM1) (Homo sapiens, UniProt P35372); experiment: cell-based; format: cell-based; details: for Emax: OPRM1, read-out: MOR cAMP %Emax ± SEM
[2] = target: human μ opioid receptor β-arrestin-2 (Homo sapiens, UniProt P35372); experiment: cell-based; details: for Emax: read-out: β-Arrestin Recruitment %Emax ± SEM
B6129/F1 hybrid mice [3] = experiment: Hot plate test; format: in vivo, mouse; details: for ED50: Mus musculus, read-out: ED50 (antinociception, hot plate); for in vivo agonist profile (antinociception): hot plate, mice; for in vivo agonist profile (antinociception) / Emax (maximal possible effect at the highest dose, hot plate): i.p.; for Emax (maximal possible effect at the highest dose, hot plate): cumulative doses, B6129/F1 mice, nonlinear regression
in vitro [4] = details: human, microsomes
[5] = target: nociceptin receptor (OPRL1) (Homo sapiens, UniProt P41146); experiment: cell-based; format: cell-based; details: for Emax: read-out: NOR cAMP Emax ± SEM (%)
[6] = Solubility observed for in vivo dosing
[7] = target: human δ opioid receptor (OPRD1) (Homo sapiens, UniProt P41143); experiment: cell-based; format: cell-based; details: for Emax: read-out: DOR cAMP Emax ± SEM (%)
in vitro [8] = details: mouse, microsomes
B6129/F1 hybrid mice [9] = experiment: Naloxone pre-treatment antagonist study in hot plate test; format: in vivo, mouse; details: naloxone 10 mg/kg pretreatment, agonist 10 mg/kg
[10] = target: κ opioid receptor (OPRK1) (Homo sapiens, UniProt P41145); experiment: cell-based; details: for Emax: read-out: KOR cAMP Emax ± SEM (%)
[11] = read-out: β-Arrestin Recruitment EC50

human δ opioid receptor (OPRD1), sequence (P41143 whole entry): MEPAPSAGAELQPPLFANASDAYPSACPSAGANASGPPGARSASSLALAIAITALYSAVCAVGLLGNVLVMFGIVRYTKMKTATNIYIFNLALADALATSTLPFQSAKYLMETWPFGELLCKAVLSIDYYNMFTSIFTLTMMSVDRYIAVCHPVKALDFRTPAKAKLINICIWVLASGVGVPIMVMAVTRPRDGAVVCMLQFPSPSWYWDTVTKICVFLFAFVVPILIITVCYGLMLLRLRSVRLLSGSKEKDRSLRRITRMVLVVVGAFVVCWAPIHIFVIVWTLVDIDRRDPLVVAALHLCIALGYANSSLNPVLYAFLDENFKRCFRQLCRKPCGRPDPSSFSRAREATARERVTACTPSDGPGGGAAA
human μ opioid receptor (OPRM1), sequence (P35372 whole entry): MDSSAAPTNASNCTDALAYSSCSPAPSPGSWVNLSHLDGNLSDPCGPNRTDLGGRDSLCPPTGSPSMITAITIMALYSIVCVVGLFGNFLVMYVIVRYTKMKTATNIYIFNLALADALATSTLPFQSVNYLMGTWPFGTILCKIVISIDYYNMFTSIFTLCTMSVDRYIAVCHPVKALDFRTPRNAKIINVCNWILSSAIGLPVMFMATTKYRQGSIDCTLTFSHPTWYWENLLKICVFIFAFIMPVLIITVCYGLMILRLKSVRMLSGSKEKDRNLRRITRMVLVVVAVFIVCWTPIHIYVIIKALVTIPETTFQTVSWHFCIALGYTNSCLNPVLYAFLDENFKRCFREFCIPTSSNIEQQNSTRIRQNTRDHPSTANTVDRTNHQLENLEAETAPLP
human μ opioid receptor β-arrestin-2, sequence (P35372 whole entry): as above
κ opioid receptor (OPRK1), sequence (P41145 whole entry): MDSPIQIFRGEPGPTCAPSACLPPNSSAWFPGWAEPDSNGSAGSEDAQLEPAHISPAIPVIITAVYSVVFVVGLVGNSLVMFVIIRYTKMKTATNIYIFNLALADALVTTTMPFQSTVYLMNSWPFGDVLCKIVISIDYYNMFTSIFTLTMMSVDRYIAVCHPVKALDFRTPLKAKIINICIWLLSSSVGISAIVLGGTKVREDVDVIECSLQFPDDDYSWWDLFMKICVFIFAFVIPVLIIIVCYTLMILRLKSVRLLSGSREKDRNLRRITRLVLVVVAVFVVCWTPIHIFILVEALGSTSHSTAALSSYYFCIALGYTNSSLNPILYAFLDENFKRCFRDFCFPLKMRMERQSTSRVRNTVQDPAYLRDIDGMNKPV
nociceptin receptor (OPRL1), sequence (P41146 whole entry): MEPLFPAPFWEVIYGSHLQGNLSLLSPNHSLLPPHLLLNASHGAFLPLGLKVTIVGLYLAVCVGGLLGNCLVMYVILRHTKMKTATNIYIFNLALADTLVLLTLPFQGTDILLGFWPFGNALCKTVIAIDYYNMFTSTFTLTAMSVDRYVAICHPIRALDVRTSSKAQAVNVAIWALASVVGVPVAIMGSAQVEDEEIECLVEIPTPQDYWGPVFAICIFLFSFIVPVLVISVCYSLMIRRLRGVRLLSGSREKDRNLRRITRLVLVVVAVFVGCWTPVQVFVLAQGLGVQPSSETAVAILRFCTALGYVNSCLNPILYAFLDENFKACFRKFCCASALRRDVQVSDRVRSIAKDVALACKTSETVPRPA

| Compound | EC50 [1] [nM] | Emax [1] [%] | Emax [2] [%] | EC50 [2] [nM] | EC50 [2, 11] [nM] | Emax [5] [%] | Emax [7] [%] | other results |
| --- | --- | --- | --- | --- | --- | --- | --- | --- |
| CC(C)(O)c1cccc(N2C3CCC2CN(CCCc2ccccc2)C3)c1 [Compound 4, 2-(3-(3-(3-Phenylpropyl)-3,8-diazabicyclo[3.2.1]octan-8-yl)phenyl)propan-2-ol] | 250 | 107.8 ± 0.9 |  |  |  |  |  | fold decrease in MOR cAMP activity compared to 3 [1]: 12 fold |
| C[C@@H](NC(=O)[C@@H](N)Cc1ccc(O)cc1)C(=O)NCC(=O)N(C)[C@@H](Cc1ccccc1)C(=O)NCCO [DAMGO, reference compound] |  |  | 102.3 ± 0.2 |  |  |  |  |  |
| FC(F)c1cccc(N2C3CCC2CN(CCCc2ccccc2)C3)c1 [Compound 9, 8-(3-(Difluoromethyl)phenyl)-3-(3-phenylpropyl)-3,8-diazabicyclo[3.2.1]octane] | 13 | 102.6 ± 1 |  | > 10000 | > 10000 |  |  |  |
| Buprenorphine [reference compound] |  |  |  |  |  |  |  | ED50 (antinociception, hot plate) (B6129/F1 hybrid mice [3]; mouse, in vivo, ip): 0.6441 mg/kg |
| NC(=O)c1ccc(N2C3CCC2CN(CCCc2ccccc2)C3)cc1 [Compound 15, 4-(3-(3-Phenylpropyl)-3,8-diazabicyclo[3.2.1]octan-8-yl)benzamide] | > 10000 |  |  |  |  |  |  | EC50 ([1]; read-out: MOR cAMP EC50): > 10000 nM |
| Oc1ccc(N2C3CCC2CN(CCCc2ccccc2)C3)cc1 [Compound 1, 4-(3-(3-Phenylpropyl)-3,8-diazabicyclo[3.2.1]octan-8-yl)phenol] | 250 | 58.7 ± 5.8 | 0 | > 10000 | > 10000 |  |  | fold reduction in MOR cAMP potency compared to atoxifent [1]: 700 fold |
| O=S(=O)(Nc1cccc(N2C3CCC2CN(CCCc2ccccc2)C3)c1)C1CC1 [Compound 12, N-(3-(3-(3-Phenylpropyl)-3,8-diazabicyclo[3.2.1]octan-8-yl)phenyl)cyclopropane-sulfonamide] | 0.5 | 98.8 ± 0.4 | 4.3 ± 0.2 | 25 |  | 0 | 71 ± 4.7 | half-life (in vitro [4]): 35.6 min; EC50 ([5]; NOR cAMP EC50 (nM)): > 10000 nM; EC50 ([5]; NOR cAMP pEC50± SEM): > 10000 nM; solubility (in words) [6]: poorly soluble; ED50 (B6129/F1 hybrid mice [3]; ip): 2.8 mg/kg; in vivo agonist profile (antinociception) (B6129/F1 hybrid mice [3]): partial agonists; Emax (maximal possible effect at the highest dose, hot plate) (B6129/F1 hybrid mice [3]): 33.45 % MPE and 33 % MPE; EC50 [7]: 1.6 nM; half-life (in vitro [8]): 6.4 min; effect of naloxone pretreatment on antinociceptive effects (B6129/F1 hybrid mice [9]): antagonized by naloxone; EC50 [10]: > 10000 nM; Emax [10]: 0% |
| NC(=O)c1cccc(N2C3CCC2CN(CCCc2ccccc2)C3)c1 [Compound 13, 3-(3-(3-Phenylpropyl)-3,8-diazabicyclo[3.2.1]octan-8-yl)benzamide] |  | 101.8 ± 0.3 | 7.5 ± 1.3 |  | 16 | 0 | 81.3 ± 3 | β-Arrestin Recruitment pEC50 ± SEM [2]: 7.8 ± 0.1; half-life (in vitro [4]): 92.7 min; NOR cAMP pEC50± SEM [5]: < 5.0; EC50 ([5]; read-out: NOR cAMP EC50): > 10000 nM; solubility (in words) [6]: readily soluble; ED50 (B6129/F1 hybrid mice [3]; ip): 0.658 mg/kg; in vivo agonist profile (antinociception) (B6129/F1 hybrid mice [3]): partial agonists; Emax (maximal possible effect at the highest dose, hot plate) (B6129/F1 hybrid mice [3]): 31.91 % MPE and 32 % MPE; DOR cAMP pEC50±SEM [7]: 8.0 and 8.0 ± 0.2; EC50 ([7]; read-out: DOR cAMP EC50): 10 nM; half-life (in vitro [8]): 14.2 min; effect of naloxone pretreatment on antinociceptive effects (B6129/F1 hybrid mice [9]): antagonized by naloxone; MOR cAMP pEC50±SEM [1]: 9.6 ± 0.1; EC50 ([1]; read-out: MOR cAMP EC50): 0.25 nM; KOR cAMP pEC50± SEM [10]: < 5.0; EC50 ([10]; read-out: KOR cAMP EC50): > 10000 nM; Emax [10]: 0% |
| NC(=O)c1ccccc1N1C2CCC1CN(CCCc1ccccc1)C2 [Compound 14, 2-(3-(3-Phenylpropyl)-3,8-diazabicyclo[3.2.1]octan-8-yl)benzamide] | 3.2 | 101.6 ± 0.6 | 26.5 ± 2.4 | 700 |  |  |  | fold decrease in MOR cAMP activity compared to 13 [1]: ~14 fold |
| Oc1cc(Cl)cc(N2C3CCC2CN(CCCc2ccccc2)C3)c1 [Compound 6, 3-Chloro-5-(3-(3-phenylpropyl)-3,8-diazabicyclo[3.2.1]octan-8-yl)phenol] | 20 | 99.6 ± 1.1 |  |  |  |  |  |  |
| OCc1cccc(N2C3CCC2CN(CCCc2ccccc2)C3)c1 [Compound 3, (3-(3-(3-Phenylpropyl)-3,8-diazabicyclo[3.2.1]octan-8-yl)phenyl)methanol] | 20 | 102 ± 1.1 |  |  |  |  |  |  |
| OC1(c2cccc(N3C4CCC3CN(CCCc3ccccc3)C4)c2)COC1 [Compound 5, 3-(3-(3-(3-Phenylpropyl)-3,8-diazabicyclo[3.2.1]octan-8-yl)phenyl)oxetan-3-ol] | 63 | 102.6 ± 0.5 |  |  |  |  |  |  |
| Nc1cccc(N2C3CCC2CN(CCCc2ccccc2)C3)c1 [Compound 11, 3-(3-(3-Phenylpropyl)-3,8-diazabicyclo[3.2.1]octan-8-yl)aniline] | 0.25 | 104 ± 2.4 | 0 | > 10000 | > 10000 | 0 | 71.1 ± 3.6 | half-life (in vitro [4]): 36.5 min; EC50 ([5]; NOR cAMP EC50 (nM)): > 10000 nM; EC50 ([5]; NOR cAMP pEC50± SEM): > 10000 nM; solubility (in words) [6]: poorly soluble; ED50 (B6129/F1 hybrid mice [3]; ip): 0.849 mg/kg; in vivo agonist profile (antinociception) (B6129/F1 hybrid mice [3]): partial agonists; Emax (maximal possible effect at the highest dose, hot plate) (B6129/F1 hybrid mice [3]): 43.86 % MPE and 44 % MPE; EC50 [7]: 1.6 nM; half-life (in vitro [8]): 3.5 min; effect of naloxone pretreatment on antinociceptive effects (B6129/F1 hybrid mice [9]): antagonized by naloxone; EC50 [10]: > 10000 nM; Emax [10]: 0% |
| NC(=O)c1cc(N2C3CCC2CN(CCCc2ccccc2)C3)ccc1O [Compound 16, 2-Hydroxy-5-(3-(3-phenylpropyl)-3,8-diazabicyclo[3.2.1]octan-8-yl)benzamide] | 4 | 60.9 ± 3.9 | 0 | > 10000 | > 10000 | 0 | 34.8 ± 3 | half-life (in vitro [4]): 13 min; agonist activity at NORs (in words) [5]: no agonist activity; EC50 ([5]; NOR cAMP EC50 (nM)): > 10000 nM; EC50 ([5]; NOR cAMP pEC50± SEM): > 10000 nM; EC50 [7]: 16 nM; half-life (in vitro [8]): 2.1 min |
| NC(=O)c1cccc(N2C3CCC2CN(CCCc2ccccc2)C3)c1F [Compound 19, 2-Fluoro-3-(3-(3-phenylpropyl)-3,8-diazabicyclo[3.2.1]octan-8-yl)benzamide] | 2.5 | 101.2 ± 0.6 | 0 | > 10000 | > 10000 | 19.5 ± 3.4 | 71.4 ± 1.8 | EC50 ([5]; NOR cAMP EC50 (nM)): 3.2 nM; EC50 ([5]; NOR cAMP pEC50± SEM): 3.16 nM; EC50 [7]: 13 nM |
| c1ccc(CCCN2CC3CCC(C2)N3c2cccc(-c3ncco3)c2)cc1 [Compound 20, 2-(3-(3-(3-Phenylpropyl)-3,8-diazabicyclo[3.2.1]octan-8-yl)phenyl)oxazole] | 320 | 100 ± 0.1 |  |  |  |  |  |  |
| O=[N+]([O-])c1cccc(N2C3CCC2CN(CCCc2ccccc2)C3)c1 [Compound 10, 8-(3-Nitrophenyl)-3-(3-phenylpropyl)-3,8-diazabicyclo[3.2.1]octane] | 10 | 100.6 ± 0.4 | 0 | > 10000 | > 10000 |  |  |  |
| NC(=O)c1cc(N2C3CCC2CN(CCCc2ccccc2)C3)ccc1F [Compound 18, 2-Fluoro-5-(3-(3-phenylpropyl)-3,8-diazabicyclo[3.2.1]octan-8-yl)benzamide] | 10 | 100.2 ± 0.5 |  | > 10000 | > 10000 | 41.9 ± 19.3 | 56.2 ± 6.2 | EC50 ([5]; NOR cAMP EC50 (nM)): 25 nM; EC50 ([5]; NOR cAMP pEC50± SEM): 25.1 nM; EC50 [7]: 160 nM |
| Oc1cc(F)cc(N2C3CCC2CN(CCCc2ccccc2)C3)c1 [Compound 8, 3-Fluoro-5-(3-(3-phenylpropyl)-3,8-diazabicyclo[3.2.1]octan-8-yl)phenol] | 0.79 | 99.9 ± 0.6 | 0 | > 10000 | > 10000 |  |  | half-life (in vitro [4]): 26.6 min; half-life (in vitro [8]): 3.3 min |

Source: publication PMC12374581 (European journal of medicinal chemistry, 2025)
